Patent EP1022028A1, “SUSTAINED-RELEASE ORAL PREPARATION” (Takeda Chemical Industries, Ltd., priority 1997, dated 1999)

Legend:
[1] = acute oral toxicity (LD50) in mice; conditions: mouse, in vivo, mice (NRM1)
Text: (§1) The sustained-release oral preparation of the present invention is low in toxic potential and can be administered safely to mammals (e.g. cat, bovine, dog, horse, goat, monkey, human) requiring the treatment or prophylaxis of diabetes or inhibition of postprandial hyperglycemia. Particularly, the valiolamine derivative for use in the present invention, for example [2-hydroxy-1-(hydroxymethyl)ethyl]valiolamine (voglibose), is very high in safety rating with the acute oral toxicity (LD50) values in mice (NRM1) and rats (Wistar) being 14.7 ∼ 21.5 grams/kilogram body weight (mice) and about 20 grams/kilogram body weight (rats), respectively.

[2] = acute oral toxicity (LD50) in rats; conditions: rat, in vivo, rats (Wistar)
Text: as §1

Which LD50 [1] does the source give for `OCC(CO)N[C@H]1C[C@](O)(CO)[C@@H](O)[C@H](O)[C@H]1O` [voglibose, 1L(1S)-(1(OH)2,3,5/1,3)-5-[[2-hydroxy-1-(hydroxymethyl)ethyl]amino]-1-C-(hydroxymethyl)-1,2,3,4-cyclohexanetetrol] here?
The LD50 was 14700 to 21500 mg/kg.

What about the LD50 [2] of the same molecule?
Its LD50 is ~20000 mg/kg.
